According to patent publication US6855843B2, “Inhibitors of α4 mediated cell adhesion” (Tanabe Seiyaku Co., Ltd., priority 1998, dated 2005):
pIC50: −log10 of the molar value.

Assays:
[1] = molecular target: T1, α4β7 (adhesion of RPMI cells to CS-1) (Homo sapiens, UniProt P13612+P26010); experiment: RPMI-CS-1 cell adhesion assay; type: cell-based; settings: adhesion of RPMI B-cell line (expresses α4β7) to CS-1 peptide coated microwells; read-out: RPMI-CS-1 IC50 value range
T1 construct: endogenous in cells
T1 sequence (P13612 34-1032): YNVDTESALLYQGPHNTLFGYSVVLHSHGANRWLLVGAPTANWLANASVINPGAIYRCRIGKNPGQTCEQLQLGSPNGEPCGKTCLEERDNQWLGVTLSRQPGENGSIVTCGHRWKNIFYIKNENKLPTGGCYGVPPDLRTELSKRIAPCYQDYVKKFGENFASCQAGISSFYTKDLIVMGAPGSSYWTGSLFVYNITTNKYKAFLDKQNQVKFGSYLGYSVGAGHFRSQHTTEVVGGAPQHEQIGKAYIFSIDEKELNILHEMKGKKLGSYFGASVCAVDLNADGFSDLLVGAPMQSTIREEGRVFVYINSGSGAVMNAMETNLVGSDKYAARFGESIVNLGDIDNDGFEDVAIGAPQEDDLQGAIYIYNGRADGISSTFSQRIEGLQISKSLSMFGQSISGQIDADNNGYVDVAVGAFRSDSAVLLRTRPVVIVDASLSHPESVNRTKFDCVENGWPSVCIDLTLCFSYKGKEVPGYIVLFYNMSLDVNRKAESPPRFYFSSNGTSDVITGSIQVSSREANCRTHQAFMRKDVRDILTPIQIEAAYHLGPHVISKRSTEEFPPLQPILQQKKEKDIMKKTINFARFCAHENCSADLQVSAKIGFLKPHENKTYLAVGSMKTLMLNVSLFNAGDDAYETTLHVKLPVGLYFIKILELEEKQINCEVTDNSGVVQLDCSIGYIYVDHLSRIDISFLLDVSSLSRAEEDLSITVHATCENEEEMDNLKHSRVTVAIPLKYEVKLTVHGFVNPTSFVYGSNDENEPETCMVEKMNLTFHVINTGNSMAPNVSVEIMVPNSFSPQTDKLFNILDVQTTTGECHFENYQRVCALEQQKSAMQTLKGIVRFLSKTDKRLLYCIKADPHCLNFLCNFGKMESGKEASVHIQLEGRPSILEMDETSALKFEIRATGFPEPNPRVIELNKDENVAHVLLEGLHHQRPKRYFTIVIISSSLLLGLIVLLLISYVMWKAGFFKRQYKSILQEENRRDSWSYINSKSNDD
T1 sequence (P26010 20-798): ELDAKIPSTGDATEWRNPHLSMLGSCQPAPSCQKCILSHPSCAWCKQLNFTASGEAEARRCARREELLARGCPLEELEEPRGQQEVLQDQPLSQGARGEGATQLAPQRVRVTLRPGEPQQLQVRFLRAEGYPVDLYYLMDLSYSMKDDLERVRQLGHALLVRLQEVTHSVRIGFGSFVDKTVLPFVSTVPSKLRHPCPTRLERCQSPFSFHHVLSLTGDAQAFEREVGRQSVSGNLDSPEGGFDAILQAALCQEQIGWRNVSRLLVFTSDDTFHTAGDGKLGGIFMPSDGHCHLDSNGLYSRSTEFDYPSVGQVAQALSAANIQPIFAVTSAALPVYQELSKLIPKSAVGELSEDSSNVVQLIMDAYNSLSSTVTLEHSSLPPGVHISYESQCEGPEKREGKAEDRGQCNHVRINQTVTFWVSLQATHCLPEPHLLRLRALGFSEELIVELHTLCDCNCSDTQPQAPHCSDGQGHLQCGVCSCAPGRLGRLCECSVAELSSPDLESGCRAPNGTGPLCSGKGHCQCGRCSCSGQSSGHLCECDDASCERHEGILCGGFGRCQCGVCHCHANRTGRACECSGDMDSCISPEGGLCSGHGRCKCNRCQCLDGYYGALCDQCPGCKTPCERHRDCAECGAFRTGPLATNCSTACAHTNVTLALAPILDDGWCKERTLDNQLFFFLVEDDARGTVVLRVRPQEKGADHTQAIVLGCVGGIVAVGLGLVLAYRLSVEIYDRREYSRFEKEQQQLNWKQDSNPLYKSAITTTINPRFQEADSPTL

Row | Compound | pIC50 [1] | melting point [°C]
1 | O=C(N[C@@H](Cc1ccc(-c2cccc3c2OCCC3)cc1)C(=O)O)c1c(Cl)cccc1Cl [Example 328] | > 6.52 | 214 to 215
2 | CC(C)(C)OC(=O)n1cccc1-c1ccc(C[C@H](NC(=O)c2c(Cl)cccc2Cl)C(=O)O)cc1 [Example 329, N-(2,6-Dichlorobenzoyl)-4-(1-tert-butoxycarbonyl-2-pyrrolyl)-L-phenylalanine] | 5.30 to 6.00 | 98 to 99
3 | CS(=O)(=O)Nc1ccc(C(=O)N[C@@H](Cc2ccc(-c3ccccc3C(F)(F)F)cc2)C(=O)O)c(Cl)c1 [Example 335, N-[2-Chloro-4-(methansulfonylamino)benzoyl]-4-[2-(trifluoromethyl)phenyl]-L-phenylalanine] | 6.00 to 6.52 | 114
4 | COc1ccccc1-c1ccc(C[C@H](NC(=O)c2c(Cl)cccc2Cl)C(=O)O)cc1Cl [Example 336, N-(2,6-Dichlorobenzoyl)-3-chloro-4-(2-methoxyphenyl)-L-phenylalanine] | > 6.52 | 131
5 | CCCCC(=O)c1cc(C[C@H](NC(=O)c2c(Cl)cccc2Cl)C(=O)O)ccc1-c1ccccc1OC [Example 338] | > 6.52 | 117.6
6 | CCCCCCC(=O)c1cc(C[C@H](NC(=O)c2c(Cl)cccc2Cl)C(=O)O)ccc1-c1ccccc1OC [Example 339] | > 6.52 | 86 to 88
7 | CCC(O)c1cc(C[C@H](NC(=O)c2c(Cl)cccc2Cl)C(=O)O)ccc1-c1ccccc1OC (some centres unmarked) [Example 341] | > 6.52 | 117 to 119
8 | CCCCC(O)c1cc(C[C@H](NC(=O)c2c(Cl)cccc2Cl)C(=O)O)ccc1-c1ccccc1OC (some centres unmarked) [Example 342] | > 6.52 | 158 to 159
9 | CCOC(=O)[C@H](Cc1ccc(-c2c(OC)cc(CN3CCCCC3)cc2OC)cc1)NC(=O)c1c(F)cccc1F [Example 354] | > 6.52 | 150

Continued, values first:

Row | pIC50 [1] | melting point [°C] | Compound
10 | > 6.52 | 206 to 207 | COc1cccc(OC)c1-c1ccc(C[C@H](NC(=O)c2c(Cl)cc(F)cc2Cl)C(=O)O)cc1 [Example 320, N-(2,6-Dichloro-4-fluorobenzoyl)-4-(2,6-dimethoxyphenyl)-L-phenylalanine]
11 | > 6.52 | 231 to 232 | COc1cc(C(F)(F)F)cc(OC)c1-c1ccc(C[C@H](NC(=O)c2c(Cl)cccc2Cl)C(=O)O)cc1 [Example 321, N-(2,6-Dichlorobenzoyl)-4-[2,6-dimethoxy-4-(trifluoromethyl)phenyl]-L-phenylalanine]
12 | > 6.52 | 236 to 237 | CNC(=O)Nc1ccc(OC)c(-c2ccc(C[C@H](NC(=O)c3c(Cl)cccc3Cl)C(=O)O)cc2)c1OC [Example 324, N-(2,6-Dichlorobenzoyl)-4-[2,6-dimethoxy-3-(methylureido)phenyl]-L-phenylalanine]
13 | > 6.52 | 244 to 245 | COc1ccc(NC(C)=O)c(OC)c1-c1ccc(C[C@H](NC(=O)c2c(Cl)cccc2Cl)C(=O)O)cc1 [Example 325, N-(2,6-Dichlorobenzoyl)-4-[2,6-dimethoxy-3-(acetylamino)phenyl]-L-phenylalanine]
14 | > 6.52 | 227 to 228 | COc1ccc(C(N)=O)c(OC)c1-c1ccc(C[C@H](NC(=O)c2c(Cl)cccc2Cl)C(=O)O)cc1 [Example 326, N-(2,6-Dichlorobenzoyl)-4-(2,6-dimethoxy-3-carbamoylphenyl)-L-phenylalanine]
15 | > 6.52 | 215 to 216 | O=C(N[C@@H](Cc1ccc(-c2cccc3c2OCC3)cc1)C(=O)O)c1c(Cl)cccc1Cl [Example 327]
16 | > 6.52 | 234.8 | COc1cccc(OC)c1-c1ccc(C[C@H](NC(=O)c2c(Cl)ccc(Br)c2Cl)C(=O)O)cc1 [Example 331, N-(2,6-Dichloro-3-bromobenzoyl)-4-(2,6-dimethoxyphenyl)-L-phenylalanine]
17 | > 6.52 | 118 to 119 | CCC(=O)c1cc(C[C@H](NC(=O)c2c(Cl)cccc2Cl)C(=O)O)ccc1-c1ccccc1OC [Example 337]
18 | > 6.52 | 121 to 123 | COc1ccc(OC)c(-c2ccc(C[C@H](NC(=O)c3c(Cl)cccc3Cl)C(=O)O)cc2C(C)O)c1OC (some centres unmarked) [Example 340]
19 | 6.00 to 6.52 | 106.8 | CON=C(C)c1cc(C[C@H](NC(=O)c2c(Cl)cccc2Cl)C(=O)O)ccc1-c1ccccc1OC [Example 352, N-(2,6-Dichlorobenzoyl)-3-[1-(methoxyimino)ethyl]-4-(2-methoxyphenyl)-L-phenylalanine]
